The subject of experiment [1] is MC38 colorectal carcinoma. Nature of the experiment: TME analysis of MC38 colorectal carcinoma in mice. Type of experiment: in vivo, murine. The source says:
(§1) FIGS. 8A-8E depict that SHP-1 inhibition combined with TLR agonists (αTLR) reprograms TME of MC38 colorectal carcinoma. FIG. 8A depicts MC38 tumor treatment scheme.

The test system of experiment [2] is EL4, B16, MC38, Pan01, KPC and LLC cancer cells. Put plainly: Phagocytosis by murine bone marrow-derived macrophages. Type of experiment: cell-based. The note with it: 1 μg/ml. On the procedure:
(§2) FIGS. 2A-2G depict that the inhibition of SHP-1 enhances macrophage proinflammatory response, antigen presentation and phagocytosis in a tumor milieu. FIG. 2A and FIG. 2B depict that SHP-1 activity in macrophages is triggered by proinflammatory stimulation and the extracellular cancer cell ligation (“touching”) of macrophages (green bar in FIG. 2A). […] The SHP-2 inhibitor SHP099 (1 μg/ml) was used in assays. FIG. 2C depicts the inhibition of SHP-1 by TPI-1 dose-dependently recovers IFNγ/LPS-induced activation of STAT1 (p-STAT1) and Erk1/2 (p-Erk1/2) de-activated by SHP-1 (red line). FIG. 2D and FIG. 2E depict that the inhibition of SHP-1 in macrophages by TPI-1 enhances production of proinflammatory cytokines (FIG. 2D) and expression of immunogenic antigen presentation machinery (FIG. 2E) by IFNγ/LPS in a tumor milieu. […] The SHP-1 and SHP-2 inhibitors TPI-1 and SHP099, respectively, was used at 1 μg/ml in assays.

The target in experiment [3] is T1, SHP-1 (Mus musculus, UniProt P29351).
T1 construct: lysate pNpp phosphatase activity after TPI-1 pulse
Put plainly: Pulse inhibition of SHP-1 in macrophages, SHP-1 activity (pNpp) over time. It counts as cell-based, murine. The procedure: FIGS. 4A and 4B depict that pulse inhibition of SHP-1 transiently enhances proinflammatory signal transduction in macrophages. FIG. 4A: murine macrophages (bone marrow derived macrophages, or “BMDM”) were treated with TPI-1 for 15 min followed by wash to complete removal of TPI-1. At different time points after the TPI-1 treatment, macrophages were stimulated with IFNγ/LPS in the presence of alive cancer cells (1:1 ratio to BMDM) for 20 min prior to cell lysis and assaying SHP-1 activity using pNpp and WB detecting total and phosphorylated STAT1 and Erk1/2. FIG. 4B: the same setting as in FIG. 4A, except that after TPI-1 treatment, TPI-1 in medium was partially removed (50%) or without removal, followed by macrophage stimulation with IFNγ/LPS at different time points.

A further experiment relates to LLC lung cancer. Nature of the experiment: Study-3: iSHP-1 with RT and αPD-L1, LLC lung cancer. Type of experiment: in vivo, mice. The note with it: TPI-1 3 or 5 mg/kg i.p. every 3 days, right flank RT 8Gy-4Gy-2Gy, αPD-L1 100 μg. On the procedure:
FIGS. 13A-13E depict pulse-intermittent SHP-1 inhibition (iSHP-1) combination with RT and αPD-L1 treating pancreatic cancer and lung cancer. FIG. 13A depicts experimental schemes. […] Concomitantly, the tumor at the right flank was treated with 8Gy X-ray radiation (RT). After two days of intermittent period, mice on day 4 were treated with the 2nd cycle TPI-1 (i.p.) of the same dose while RT reduced to 4Gy applied to the right flank tumor. The 3rd cycle (day 7) iSHP-1 combination with RT reduced to 2Gy. Anti-PD-L1 Ab (100 μg, i.p.) was given a day following TPI-1 plus RT. FIG. 13B depicts luminescent image tracing KPC-luc and LLC-luc tumor changes post treatment. FIG. 13C depicts record of tumor volume changes and animal survival up to post-treatment 45 days.
Modalities & Dosing Strategy: i) iSHP-1—TPI-1, 3 or 5 mg/kg, i.p., 1× every 3 days. ii) Tumor focal RT: 8Gy-4Gy-2Gy, given to right flank simultaneously with iSHP-1. iii) αPD-L1: 100 μg, i.p., given a day after iSHP-1 plus RT

Another experiment has as its system MC38 tumor. Nature of the experiment: Ex vivo treatment of excised MC38 tumor. Details: species or system murine. The note with it: TPI-1 and αTLR.
Description: as §1
Consistent with these changes, TME analyses of MC38 colorectal and KPC pancreatic tumors treated with TLR agonist combined with TPI-1 or RT (FIGS. 8A-8E & 9) found rapid infiltration of inflammatory neutrophils (ROShigh) and tumor-killing NK cells (Granzhigh), and the strong antigen presentation also brought about the expansion of tumor-specific (p15E-reactive) cytotoxic T cells harboring high tumoricidal capacity (Granzhigh). The immunosuppressive compartments in the same TME, including MDSC and Treg, were reduced. […] Ex vivo infusion of TLR agonists and TPI-1 together, but not each individually, into excised tumors induced the similar response of T cell expansion.

Experiment [4] has as its system PTP/SHP-1 activity in KPC tumor. Put plainly: PTP/SHP-1 activity in KPC tumor in vivo. Further details: species or system murine. The settings on record: with αTLR, cytokines, STING activator, RT, AZA or αPD-L1.
A further experiment concerns macrophages. Nature of the experiment: Macrophage cytokine production and antigen presentation machinery in a tumor milieu. Type of experiment: cell-based. The settings on record: IFNγ/LPS. The procedure: as §2
Macrophages with high SHP-1 activity in a tumor milieu diminish production of proinflammatory cytokines but produce high IL-10 (see FIG. 2D, blue bar) under stimulation of IFNγ/LPS. This reinforcement of immunosuppression was reversed by SHP-1 inhibition. Additionally, inhibition of SHP-1 also enabled proinflammatory-activated macrophages to overcome the “don't-eat-me” barrier and initiate potent phagocytosis towards cancer cells, irrespective of cancer cells expressing of CD47 (FIG. 2F and FIG. 2G).

For experiment [5], the system named is SHP-1. Nature of the experiment: SHP-1 activity in macrophages under proinflammatory stimulation and cancer cell ligation. It counts as cell-based. The note with it: IFNγ/LPS stimulation, cancer cell ligation. On the procedure:
as §2
FIGS. 3A-3E depict modulation of SHP-1 activity in proinflammatory macrophages in cancer. Macrophages co-cultured with cancer cells were stimulated with IFNγ/LPS or TLR agonists (αTLR) comprising CpG, polycytidylic acid (i.e., PolyI:C) and R848 (each 0.4 μg/ml) for 30 min (37 °C) in the presence or the absence of different SHP-1 or SHP-2 inhibitor or activator, followed by cell lysis and assays of PTP activity. FIG. 3A depicts SHP-1 activity regulation mechanisms. […] FIG. 3E depicts that PKCθ negatively regulates SHP-1 activity at a moderate level.
In addition to TPI-1, several other SHP-1 inhibitors such as PTP inhibitor-I, PTP inhibitor-III, and recently reported vitamin E (9, 10) and phomoxanthone A and B (P×A and P×B) (11) were tested. Given that PKCθ modulates SHP-1 activity through phosphorylating Ser591 (12, 13), PKCθ inhibitor and activator were also tested in various assays.

Experimental findings from US20260325465A1, “SHP-1 INHIBITORS FOR TREATING CANCER” (MDX MANAGEMENT LLC, priority 2022, published 2026) are described below.

T1 sequence (P29351 whole entry): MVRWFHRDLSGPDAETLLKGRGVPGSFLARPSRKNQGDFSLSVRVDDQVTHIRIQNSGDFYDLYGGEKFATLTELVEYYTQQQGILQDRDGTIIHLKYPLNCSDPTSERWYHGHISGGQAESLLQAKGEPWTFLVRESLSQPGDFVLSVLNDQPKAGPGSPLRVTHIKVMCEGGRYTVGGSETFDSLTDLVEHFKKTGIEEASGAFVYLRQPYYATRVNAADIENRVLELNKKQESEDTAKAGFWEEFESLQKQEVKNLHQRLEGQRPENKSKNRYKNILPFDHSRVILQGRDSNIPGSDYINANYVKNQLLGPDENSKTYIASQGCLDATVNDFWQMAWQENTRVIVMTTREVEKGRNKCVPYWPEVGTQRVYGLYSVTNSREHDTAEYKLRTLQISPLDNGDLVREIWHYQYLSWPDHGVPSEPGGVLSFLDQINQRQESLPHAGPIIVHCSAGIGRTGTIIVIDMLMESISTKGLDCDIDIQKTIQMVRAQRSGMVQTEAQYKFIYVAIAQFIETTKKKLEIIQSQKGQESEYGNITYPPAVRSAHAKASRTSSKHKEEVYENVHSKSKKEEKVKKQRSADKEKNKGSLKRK

For `O=C1C=CC(=O)C(c2cc(Cl)ccc2Cl)=C1` [TPI-1], in experiment [1] (TPI-1 and αTLR), the intratumoral macrophages result is recorded as “marked reduction of intratumoral macrophages”. In addition, the TME reprogramming entry in experiment [1] (TPI-1 combined with αTLR) is “reduction of tumor cells, and increases in immune infiltration especially tumoricidal CD8 T cells, neutrophils (PMN) and NK cells, while reduction of macrophages, MDSC and Treg”. For the same molecule, in experiment [2], the “phagocytosis of cancer cells” value is listed as “promotes proinflammatory-activated macrophages for phagocytosis of cancer cells”. On SHP-1 [3] (15 min treatment, then wash), the “duration of pulse SHP-1 inhibition before activity starts to recover” value was 5 to 8 h and the “time for SHP-1 activity to recover to over 50%” value was in the range of 12 to 16 h. For the same molecule, the SHP-1 total protein entry on SHP-1 [3] (after pulse inhibition) is “did not appear to vary”. The “SHP-1 inhibition (in words)” value at SHP-1 [3] (immediately after 15 min treatment and wash) was “strong SHP-1 inhibition”. Besides, the SHP-1 activity recovered result on SHP-1 [3] (in 12-16 h after 15 min treatment and wash) is listed as “over 50%”. Also, the “time to recover SHP-1 activity after pulse inhibition” value on SHP-1 [3] (pulse inhibition in macrophages) was determined as 24 h. Also, the “SHP-1 inhibition without or with partial inhibitor removal” value at SHP-1 [3] (without removal or 50% removal) is “elongated inhibition on the SHP-1 activity”. Also, the “tumor elimination incl. distal lesions” value in the experiment with LLC lung cancer was “effectively eliminating or repressing KPC pancreatic cancer and LLC lung cancer along with distal lesions”. The “CD8 T cell expansion in excised tumor” value with MC38 tumor was “induced CD8 T cell expansion”. In addition, the “treatment-induced PTP/SHP-1 activity abated” value in experiment [4] is given as “abated”. Besides, in the experiment on macrophages, the “expression of immunogenic antigen presentation machinery” value is “elevated macrophage production of proinflammatory cytokines and expression of immunogenic antigen presentation machinery”; the “macrophage proinflammatory cytokine production” value is given as “elevated macrophage production of proinflammatory cytokines”; the “reinforcement of immunosuppression (IL-10)” value is listed as “reversed”. Moreover, the “SHP-1 activity in macrophages (effect in words)” value in the experiment on SHP-1 [5] is reported as “potently inhibited SHP-1 activity at low concentrations”.
